Assay results from ChEMBL document CHEMBL1795228, “Air to lung partition coefficients for volatile organic compounds and blood to lung partition coefficients for volatile organic compounds and drugs” (Eur J Med Chem, 2008).

Columns and labels:
[1] = In-vitro air to lung partition coefficients of the compound, logK(lung) (human/rat); conditions: octanol/water
[2] = In-vitro air to blood partition coefficients of the compound, logK(blood) (human/rat); conditions: octanol/water
[3] = In-vitro blood to lung partition coefficients of the compound, logP(lung) (human/rat)
[4] = In-vivo blood to lung partition coefficients of the compound, logP(lung) in rat; format: ADME
[5] = In-vivo plasma to lung partition coefficients of the compound, logP(lung) in rat; format: ADME, cell-free

Row | Compound | logK(lung) [1] | logK(blood) [2] | logP(lung) [3] | logP(lung) [4] | logP(lung) [5]
1 | FC(F)OC(Cl)C(F)(F)F (centres undefined) [ISOFLURANE] | 0.2 | 0.2 | 0 |  | 
2 | CN(C)CCCN1c2ccccc2CCc2ccc(Cl)cc21 [CLOMIPRAMINE] |  |  |  | 2.16 | 
3 | CCOCC [ETHER] | 1.14 | 1.11 | 0.03 |  | 
4 | CCc1ccc(C(=O)C(C)CN2CCCC2)cc1 (centres undefined) [INAPERISONE] |  |  |  |  | 1.52
5 | CN1C(=O)CC[C@H]1c1cccnc1 [COTININE] |  |  |  |  | -0.18
6 | COCCc1ccc(OCC(O)CNC(C)C)cc1 (centres undefined) [METOPROLOL] |  |  |  | 1.06 | 
7 | [N-]=[N+]=O [NITROUS OXIDE] | -0.37 | -0.34 | 0 |  | 
8 | ClC=C(Cl)Cl [TRICHLOROETHYLENE] | 1.15 | 1.14 | 0.01 |  | 
9 | CCC1(CC)C(=O)NC(=O)NC1=O [BARBITAL] |  |  |  |  | 0
10 | CCn1cc(C(=O)O)c(=O)c2ccc(C)nc21 [NALIDIXIC ACID] |  |  |  |  | -0.48
11 | Oc1ccc(O)cc1 [HYDROQUINONE] |  |  |  | -0.16 | 
12 | CCCCCCCCC1(CC)C(=O)NC(=O)NC1=O |  |  |  |  | 0.49
13 | O=C1CN=C(c2ccccc2)c2cc([N+](=O)[O-])ccc2N1 [NITRAZEPAM] |  |  |  | 0.26 | 
14 | OC(CCN1CCCCC1)(c1ccccc1)C1CCCCC1 (centres undefined) [TRIHEXYPHENIDYL] |  |  |  | 1.87 | 
15 | CC [ETHANE] | -1.28 | -1.02 | -0.26 |  | 
16 | CN(C/C=C/C#CC(C)(C)C)Cc1cccc2ccccc12 [TERBINAFINE] |  |  |  |  | 0.41
17 | COC(=O)C(c1ccccc1)C1CCCCN1 (centres undefined) [METHYLPHENIDATE] |  |  |  |  | 1.54
18 | C=CC(=O)O [ACRYLIC ACID] |  |  |  | 0.14 | 
19 | CCC1(c2ccccc2)C(=O)NC(=O)NC1=O [PHENOBARBITAL] |  |  |  |  | -0.08
20 | CCCC(C)C | -0.1 | -0.39 | 0.29 |  | 
21 | Cn1c(=O)c2[nH]cnc2n(C)c1=O.O [THEOPHYLLINE] |  |  |  |  | -0.15
22 | CC(C)NCC(O)COc1ccc(CCOCC2CC2)cc1 (centres undefined) [BETAXOLOL] |  |  |  |  | 2.29
23 | CCCCCCCC1(CC)C(=O)NC(=O)NC1=O |  |  |  |  | 0.12

Row | Compound | logK(lung) [1] | logK(blood) [2] | logP(lung) [3] | logP(lung) [4] | logP(lung) [5]
24 | [C-]#[O+] [CARBON MONOXIDE] | -1.69 | -1.67 | -0.02 |  | 
25 | O=O [OXYGEN] | -1.62 | -1.58 | -0.04 |  | 
26 | Cc1nnc(SCC2=C(C(=O)O)N3C(=O)[C@@H](NC(=O)Cn4cnnn4)[C@H]3SC2)s1 [CEFAZOLIN] |  |  |  |  | -0.78
27 | C#C [ETHYNE] | -0.06 | -0.06 | 0 |  | 
28 | Cc1nc(Nc2ccc(F)cc2)nc(N2CCc3ccccc3C2C)c1C.Cl (centres undefined) [REVAPRAZAN HYDROCHLORIDE] |  |  |  |  | 1.34
29 | O=C(O)c1ccccc1O [SALICYLIC ACID] |  |  |  |  | -0.72
30 | CC(C)CO [ISOBUTANOL] | 2.6 | 2.92 | -0.32 |  | 
31 | COC(F)(F)C(Cl)Cl [METHOXYFLURANE] | 1.2 | 1.28 | -0.08 |  | 
32 | CCCC1O[C@@H]2C[C@H]3[C@@H]4CCC5=CC(=O)C=C[C@]5(C)[C@H]4[C@@H](O)C[C@]3(C)[C@]2(C(=O)CO)O1 (some centres undefined) [BUDESONIDE] |  |  |  |  | 0.94
33 | CC(C)(C)NC[C@H](O)COc1nsnc1N1CCOCC1 [TIMOLOL] |  |  |  |  | 1.43
34 | c1ccc(C2(N3CCCCC3)CCCCC2)cc1 [PHENCYCLIDINE] |  |  |  |  | 1.61
35 | O=C1NC(=O)C(c2ccccc2)(c2ccccc2)N1 [PHENYTOIN] |  |  |  |  | -0.1
36 | c1cc2ccc3cccc4ccc(c1)c2c34 [PYRENE] |  |  |  |  | 0.35
37 | CC1(C)S[C@@H]2[C@H](NC(=O)COc3ccccc3)C(=O)N2[C@H]1C(=O)O [PENICILLIN V] |  |  |  |  | -0.8
38 | COC(=O)[C@H]1[C@@H](OC(=O)c2ccccc2)C[C@@H]2CC[C@H]1N2C [COCAINE] |  |  |  |  | 1.06
39 | CC(Cl)(Cl)Cl [TRICHLOROETHANE] | 0.67 | 0.63 | 0.04 |  | 
40 | CSc1ccc2c(c1)N(CCC1CCCCN1C)c1ccccc1S2 (centres undefined) [THIORIDAZINE] |  |  |  |  | 1.13
41 | CC1CCCC1 [METHYLCYCLOPENTANE] | 0.23 | -0.07 | 0.3 |  | 
42 | ClCCl [METHYLENE CHLORIDE] | 0.76 | 1.12 | -0.36 |  | 
43 | CCCCCCC1(CC)C(=O)NC(=O)NC1=O |  |  |  |  | 0.08
44 | CCCC1(CC)C(=O)NC(=O)NC1=O |  |  |  |  | 0.16
45 | ClC(Cl)=C(Cl)Cl [TETRACHLOROETHYLENE] | 1.86 | 1.19 | 0.67 |  | 
46 | Cc1onc(-c2c(Cl)cccc2Cl)c1C(=O)N[C@@H]1C(=O)N2[C@@H]1SC(C)(C)[C@@H]2C(=O)O [DICLOXACILLIN] |  |  |  |  | -0.92

Row | Compound | logK(lung) [1] | logK(blood) [2] | logP(lung) [3] | logP(lung) [4] | logP(lung) [5]
47 | FS(F)(F)(F)(F)F [SULFUR HEXAFLUORIDE] | -2.14 | -2.17 | 0.03 |  | 
48 | CCC(C)CC | -0.05 | -0.37 | 0.32 |  | 
49 | ClC(Cl)Cl [CHLOROFORM] | 1.12 | 1.15 | -0.03 |  | 
50 | CC(C)=O [ACETONE] | 2.2 | 2.36 | -0.16 |  | 
51 | O=C1Nc2ccc(Cl)cc2C(c2ccccc2Cl)=NC1O (centres undefined) [LORAZEPAM] |  |  |  |  | 0.44
52 | CC1(C)[C@@H](O)CC[C@]2(C)[C@H]3C(=O)C=C4[C@@H]5C[C@@](C)(C(=O)O)CC[C@]5(C)CC[C@@]4(C)[C@]3(C)CC[C@@H]12 [ENOXOLONE] |  |  |  |  | -0.66
53 | FC(F)(F)C(Cl)Br (centres undefined) [HALOTHANE] | 0.46 | 0.57 | -0.11 |  | 
54 | Cc1cccc(OCC(O)CNC(C)C)c1 (centres undefined) [TOLIPROLOL] |  |  |  |  | 0.89
55 | CN1C(=O)NC(=O)C(C)(C2=CCCCC2)C1=O (centres undefined) [HEXOBARBITAL] |  |  |  |  | 0.45
56 | CC(C)NCC(O)COc1ccc(COCCOC(C)C)cc1 (centres undefined) [BISOPROLOL] |  |  |  |  | 1.62
57 | C=C | -0.25 | -0.53 | 0.28 |  | 
58 | Cc1ccccc1C [O-XYLENE] | 1.94 | 1.42 | 0.52 |  | 
59 | C=CC=C [BUTADIENE] | -0.32 | 0.09 | -0.41 |  | 
60 | Nc1cc(Cl)c(S(N)(=O)=O)cc1-c1nnn[nH]1 |  |  |  |  | 0.6
61 | COn1cc(C(=O)O)c(=O)c2cc3c(cc21)OCO3 [MILOXACIN] |  |  |  |  | -0.29
62 | CCOc1ccccc1C(N)=O [ETHENZAMIDE] |  |  |  |  | -0.03
63 | CO [METHYL ALCOHOL] | 3.24 | 3.41 | -0.17 |  | 
64 | FC(F)(F)c1ccc(Cl)cc1 | 1.63 | 1.43 | 0.2 |  | 
65 | CCCCC [PENTANE] | -0.3 | -0.29 | -0.01 |  | 
66 | c1ccccc1 [BENZENE] | 1.08 | 1.05 |  |  | 
67 | CCCCCC1(CC)C(=O)NC(=O)NC1=O |  |  |  |  | 0.22
68 | CCCCCC [HEXANE] | 0 | 0.21 | -0.21 |  | 
69 | C1CO1 [OXIRANE] | 1.79 | 1.8 | -0.01 |  | 

Row | Compound | logK(lung) [1] | logK(blood) [2] | logP(lung) [3] | logP(lung) [4] | logP(lung) [5]
70 | C=CC(=C)Cl [CHLOROPRENE] | 1.12 |  |  |  | 
71 | [He] [HELIUM] | -1.98 | -2 | 0.02 |  | 
72 | CCCC(CCC)C(=O)O [VALPROIC ACID] |  |  |  |  | -0.38
73 | C1CC1 [CYCLOPROPANE] | -0.51 | -0.21 | -0.3 |  | 
74 | CC(C)NCC(O)COc1cccc2[nH]ccc12 (centres undefined) [PINDOLOL] |  |  |  |  | 1.01
75 | FC(F)(F)CCl | 0.34 | 0.14 | 0.2 |  | 
76 | CN1C(C(=O)Nc2ccccn2)=C(O)c2sccc2S1(=O)=O [TENOXICAM] |  |  |  |  | -0.49
77 | FCOC(C(F)(F)F)C(F)(F)F [SEVOFLURANE] | 0.11 | -0.2 | 0.31 |  | 
78 | CN1CCC[C@H]1c1cccnc1 [NICOTINE] |  |  |  |  | 0.32
79 | O=C(O)c1ccc(-c2ccccc2)cc1 |  |  |  |  | -0.55
80 | C1CCCCC1 [CYCLOHEXANE] | 0.43 | 0.17 | 0.26 |  | 
81 | CCCCCCC [HEPTANE] | 0.4 | 0.5 | -0.1 |  | 
82 | CC(C)=CCN1CC[C@]2(C)c3cc(O)ccc3C[C@H]1[C@H]2C [(+)-PENTAZOCINE] |  |  |  |  | 1.43
83 | OC(CCN1CCCCC1)(c1ccccc1)C1CC2C=CC1C2 (centres undefined) [BIPERIDEN] |  |  |  |  | 1.79
84 | COc1cccc2c1C(=O)c1c(O)c3c(c(O)c1C2=O)C[C@@](O)(C(=O)CO)C[C@@H]3O[C@H]1C[C@H](N)[C@H](O)[C@H](C)O1 [DOXORUBICIN] |  |  |  |  | 0.53
85 | CCC1(C)C(=O)NC(=O)NC1=O |  |  |  |  | -0.21
86 | CCC(C)=O [BUTANONE] | 2.01 | 2.24 | -0.23 |  | 
87 | CCCC(C)C1(CC)C(=O)NC(=S)NC1=O (centres undefined) [THIOPENTAL] |  |  |  |  | 0.08
88 | CCC(C)(C)C | -0.22 | -0.59 | 0.37 |  | 
89 | FC(F)OC(F)(F)C(F)Cl (centres undefined) | 0.56 | 0.35 | 0.21 |  | 
90 | O=c1[nH]c(=O)n(C2CCCO2)cc1F (centres undefined) [TEGAFUR] |  |  |  |  | -0.59
91 | C=CC [PROPENE] | -0.24 | -0.21 | -0.03 |  | 
92 | CCCCC1(CC)C(=O)NC(=O)NC1=O [BUTETHAL] |  |  |  |  | 0.18
